This is an account of results in US10501421B1, “Substituted benzimidazoles as modulators of Ras signaling” (VANDERBILT UNIVERSITY, priority 2017, dated 2019).

This test deals with Ras GEF SOS (Son of Sevenless) (Homo sapiens, UniProt Q07889). The test can be described thus: SOS-mediated nucleotide exchange on Ras (BODIPY-GDP fluorescence). As to conditions: SOS-mediated exchange of BODIPY-GDP for GTP on Ras. It is filed as biochemical. On the procedure:
Compounds of the present invention were tested for their ability to modify the rate at which Ras exchanges a labeled nucleotide guanosine diphosphate (GDP) analog for guanosine triphosphate (GTP). Briefly, test compounds, then GTP and the Ras GEF SOS (Son of Sevenless) are added to a buffered solution containing Ras protein loaded with BODIPY-GDP. Changes in fluoresence indicating exchange of the labeled GDP for GTP are monitored over time. Raw fluorescence data was fit to a single exponential decay function and derived rates were plotted as mean values. EC50 values were calculated by plotting mean derived rates as a function of compound concentration and fit using a four-parameter dose-response curve. This assay is performed in a method analogous to the assay disclosed in: Burns, M. C.; Sun, Q.; Daniels, R. N.; Camper, D. V.; Kennedy, J. P.; Phan, J.; Olejniczak, E. O.; Lee, T.; Waterson, A. G.; Rossanese, O. W.; Fesik, S. W. “Approach for targeting Ras with small molecules that activate SOS-mediated nucleotide exchange” Proc. Natl. Acad. Sci. 2014; 11(9): 3401-3406. PMCID: PMC3948241.

Structures can show the parent of a compound that is named as a salt.

Chain of Ras GEF SOS (Son of Sevenless) (Q07889 564-1049 limits assumed): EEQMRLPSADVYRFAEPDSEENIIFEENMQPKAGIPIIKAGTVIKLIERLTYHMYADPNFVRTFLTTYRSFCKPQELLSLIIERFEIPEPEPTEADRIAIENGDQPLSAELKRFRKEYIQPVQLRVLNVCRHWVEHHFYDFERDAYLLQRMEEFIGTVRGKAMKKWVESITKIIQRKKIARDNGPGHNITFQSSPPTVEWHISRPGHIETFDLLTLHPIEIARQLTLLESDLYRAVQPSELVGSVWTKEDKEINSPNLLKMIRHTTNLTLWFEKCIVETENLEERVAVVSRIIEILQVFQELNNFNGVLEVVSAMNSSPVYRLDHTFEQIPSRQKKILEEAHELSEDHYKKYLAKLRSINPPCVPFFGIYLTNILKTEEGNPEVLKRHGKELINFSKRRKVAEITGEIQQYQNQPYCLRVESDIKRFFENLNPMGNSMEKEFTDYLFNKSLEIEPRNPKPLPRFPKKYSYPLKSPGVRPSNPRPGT
Chain of Ras GEF SOS (Son of Sevenless) (P01112 1-166 partner limits assumed): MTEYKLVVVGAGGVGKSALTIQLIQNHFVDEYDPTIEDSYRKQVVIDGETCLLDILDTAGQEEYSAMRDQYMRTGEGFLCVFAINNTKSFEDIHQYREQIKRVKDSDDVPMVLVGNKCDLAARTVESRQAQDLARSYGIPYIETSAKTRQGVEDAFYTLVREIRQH

`Nc1nc2ccccc2n1Cc1ccc(F)cc1` [Example 1, 1-(4-fluorobenzyl)-1H-benzo[d]imidazol-2-amine] had an EC50 of 30 to 100 µM.

Regarding `Nc1nc2ccccc2n1Cc1ccc(F)c(Cl)c1` [Example 2, 1-(3-chloro-4-fluorobenzyl)-1H-benzo[d]imidazol-2-amine], the concentration for a half-maximal effect (EC50) lay in the range of 30 to 100 µM.

`Cc1cc2nc(N)n(Cc3ccc(F)cc3)c2cc1C` [Example 3, 1-(4-fluorobenzyl)-5,6-dimethyl-1H-benzo[d]imidazol-2-amine] returned an EC50 of 30 to 100 µM.

In turn, `Cc1cc2nc(N)n(Cc3ccc(Cl)cc3)c2cc1C` [Example 5, 1-(4-chlorobenzyl)-5,6-dimethyl-1H-benzo[d]imidazol-2-amine] registered an EC50 of 30 to 100 µM.

`Cc1cc2nc(N)n(Cc3cc(F)cc(F)c3)c2cc1C` [Example 6, 1-(3,5-difluorobenzyl)-5,6-dimethyl-1H-benzo[d]imidazol-2-amine] displayed an EC50 of 30 to 100 µM.

The compound `Fc1ccc(Cn2c(N3CCOCC3)nc3ccccc32)cc1Cl` [Example 8, 4-(1-(3-chloro-4-fluorobenzyl)-1H-benzo[d]imidazol-2-yl)morpholine] gave an EC50 of 30 to 100 µM.

Turning to `Fc1ccc(Cn2c(N3CCOCC3)nc3ccccc32)cc1` [Example 9, 4-(1-(4-fluorobenzyl)-1H-benzo[d]imidazol-2-yl)morpholine], the EC50 is 30 to 100 µM.

With `Clc1ccc(Cn2c(N3CCNCC3)nc3ccccc32)cc1` [Example 11, 1-(4-chlorobenzyl)-2-(piperazin-1-yl)-1H-benzo[d]imidazole trifluoroacetate], the EC50 lay in the range of 1 to 5 µM.

As for `NCCNc1nc2ccccc2n1Cc1ccc(Cl)cc1` [Example 12, N^1-(1-(4-chlorobenzyl)-1H-benzo[d]imidazol-2-yl)ethane-1,2-diamine trifluoroacetate], the EC50 was in the range of 5 to 30 µM.

`Fc1cc(F)cc(Cn2c(N3CCOCC3)nc3ccccc32)c1` [Example 13, 4-(1-(3,5-difluorobenzyl)-1H-benzo[d]imidazol-2-yl)morpholine] registered an EC50 of 30 to 100 µM.

As to `Fc1cc(F)cc(Cn2c(N3CCNCC3)nc3ccccc32)c1` [Example 14, 1-(3,5-difluorobenzyl)-2-(piperazin-1-yl)-1H-benzo[d]imidazole trifluoroacetate], the EC50 lay in the range of 5 to 30 µM.

Regarding `NCCNc1nc2ccccc2n1Cc1cc(F)cc(F)c1` [Example 15, N^1-(1-(3,5-difluorobenzyl)-1H-benzo[d]imidazol-2-yl)ethane-1,2-diamine trifluoroacetate], the EC50 was in the range of 5 to 30 µM.

For `Cc1cc2nc(NCCO)n(Cc3ccc(F)cc3)c2cc1C` [Example 23, 2-((1-(4-fluorobenzyl)-5,6-dimethyl-1H-benzo[d]imidazol-2-yl)amino)ethan-1-ol], the EC50 was in the range of 30 to 100 µM.

On to `Cc1cc2nc(N3CCN(C)CC3)n(Cc3ccc(F)c(Cl)c3)c2cc1C` [Example 27, 1-(3-chloro-4-fluorobenzyl)-5,6-dimethyl-2-(4-methylpiperazin-1-yl)-1H-benzo[d]imidazole trifluoroacetate], for which the EC50 lay in the range of 30 to 100 µM.

With `Cc1cc2nc(NCCN(C)C)n(Cc3ccc(F)c(Cl)c3)c2cc1C` [Example 28, N^1-(1-(3-chloro-4-fluorobenzyl)-5,6-dimethyl-1H-benzo[d]imidazol-2-yl)-N^2,N^2-dimethylethane-1,2-diamine trifluoroacetate], the EC50 fell in the range of 1 to 5 µM.

On to `Cc1cc2nc(NCCN3CCOCC3)n(Cc3ccc(F)cc3)c2cc1C` [Example 29, 1-(4-fluorobenzyl)-5,6-dimethyl-N-(2-morpholinoethyl)-1H-benzo[d]imidazol-2-amine trifluoroacetate], for which the EC50 is 30 to 100 µM.

The compound `Cc1cc2nc(NCCN3CCOCC3)n(Cc3ccc(F)c(Cl)c3)c2cc1C` [Example 30, 1-(3-chloro-4-fluorobenzyl)-5,6-dimethyl-N-(2-morpholinoethyl)-1H-benzo[d]imidazol-2-amine trifluoroacetate] had an EC50 of 5 to 30 µM.

Compound `Cc1cc2nc(N3CCNCC3)n(Cc3cccc(C(F)(F)F)c3)c2cc1C` [Example 32, 5,6-dimethyl-2-(piperazin-1-yl)-1-(3-(trifluoromethyl)benzyl)-1H-benzo[d]imidazole trifluoroacetate] registered a 50% effective concentration (EC50) of 5 to 30 µM.

Regarding `Cc1cc2nc(-c3ccncc3)n(Cc3cc(F)cc(F)c3)c2cc1C` [Example 53, 1-(3,5-difluorobenzyl)-5,6-dimethyl-2-(pyridin-4-yl)-1H-benzo[d]imidazole], the EC50 lay within 30 to 100 µM.

`Cc1cc2nc(-c3ccncc3)n(Cc3ccc(F)c(Cl)c3)c2cc1C` [Example 54, 1-(3-chloro-4-fluorobenzyl)-5,6-dimethyl-2-(pyridin-4-yl)-1H-benzo[d]imidazole] displayed an EC50 of 30 to 100 µM.

In turn, `Fc1ccc(Cn2c(C3CCNCC3)nc3ccccc32)cc1Cl` [Example 55, 1-(3-chloro-4-fluorobenzyl)-2-(piperidin-4-yl)-1H-benzo[d]imidazole trifluoroacetate] displayed an EC50 of 5 to 30 µM.

Consider `Fc1cc(F)cc(Cn2c(C3CCNCC3)nc3ccccc32)c1` [Example 57, 1-(3,5-difluorobenzyl)-2-(piperidin-4-yl)-1H-benzo[d]imidazole trifluoroacetate], for which the EC50 fell in the range of 5 to 30 µM.

In turn, `Cc1cc2nc(C3CCNCC3)n(Cc3ccc(F)c(Cl)c3)c2cc1C` [Example 59, 1-(3-chloro-4-fluorobenzyl)-5,6-dimethyl-2-(piperidin-4-yl)-1H-benzo[d]imidazazole trifluoroacetate] showed an EC50 of 5 to 30 µM.

For the compound `Cc1ccc2nc(NCCN)n(Cc3ccc(F)c(Cl)c3)c2c1` [Example 60, N^1-(1-(3-chloro-4-fluorobenzyl)-6-methyl-1H-benzo[d]imidazol-2-yl)ethane-1,2-diamine trifluoroacetate], the EC50 is 1 to 5 µM.

For the compound `Fc1ccc(Cn2c(N3CCNCC3)nc3ccc(C(F)(F)F)cc32)cc1Cl` [Example 71, 1-(3-chloro-4-fluorobenzyl)-2-(piperazin-1-yl)-6-(trifluoromethyl)-1H-benzo[d]imidazole trifluoroacetate], the EC50 lay in the range of 1 to 5 µM.

Regarding `COc1ccc(-c2cccc3c2nc(N2CCNCC2)n3Cc2ccc(F)c(Cl)c2)cc1OC` [Example 88, 1-(3-chloro-4-fluorobenzyl)-4-(3,4-dimethoxyphenyl)-2-(piperazin-1-yl)-1H-benzo[d]imidazole], the EC50 was in the range of 1 to 5 µM.

In turn, `NCCc1cccc2c1nc(N1CCNCC1)n2Cc1cc(F)cc(F)c1` [Example 99, 2-(1-(3,5-difluorobenzyl)-2-(piperazin-1-yl)-1H-benzo[d]imidazol-4-yl)ethan-1-amine trifluoroacetate] showed an EC50 of 5 to 30 µM.

In the case of `NCCc1cccc2c1nc(N1CCNCC1)n2Cc1ccc(C(F)(F)F)cc1` [Example 100, 2-(2-(piperazin-1-yl)-1-(4-(trifluoromethyl)benzyl)-1H-benzo[d]imidazol-4-yl)ethan-1-amine trifluoroacetate], the EC50 fell in the range of 1 to 5 µM.

The compound `Cc1cc2c(nc(NCCN)n2Cc2cccc(C#N)c2)c(-c2ccccc2Cl)c1C` [Example 117, 3-((2-((2-aminoethyl)amino)-4-(2-chlorophenyl)-5,6-dimethyl-1H-benzo[d]imidazol-1-yl)methyl)benzonitrile trifluoroacetate] showed an EC50 of 1 to 5 µM.

In turn, `Cc1cc(CN2CCCCC2)c2ncn(Cc3ccc(F)c(Cl)c3)c2c1` [Example 144, 1-(3-chloro-4-fluorobenzyl)-6-methyl-4-(piperidin-1-ylmethyl)-1H-benzo[d]imidazole trifluoroacetate] came in with a concentration giving a half-maximal response (EC50) of 30 to 100 µM.

`Cc1cc2c(nc(NCCN)n2Cc2ccc(F)c(Cl)c2)c(CN2CCCC2)c1C` [Example 146, N^1-(1-(3-chloro-4-fluorobenzyl)-5,6-dimethyl-4-(pyrrolidin-1-ylmethyl)-1H-benzo[d]imidazol-2-yl)ethane-1,2-diamine trifluoroacetate] showed an EC50 of 1 to 5 µM.

For the compound `CC(C)N1CC[C@@H](C(=O)c2ccccc2)[C@H]1c1cc(Cl)cc2c1nc(N1CCNCC1)n2Cc1ccc(F)c(Cl)c1` [Example 152, ((2S,3R)-2-(6-chloro-1-(3-chloro-4-fluorobenzyl)-2-(piperazin-1-yl)-1H-benzo[d]imidazol-4-yl)-1-isopropylpyrrolidin-3-yl)(phenyl)methanone trifluoroacetate], the EC50 is 1 to 5 µM.

Consider `COc1ccccc1C#Cc1ccccc1-c1cc(Cl)cc2c1nc(N1CCNCC1)n2Cc1cc(C)c(F)c(C)c1` [Example 186, 6-chloro-1-(4-fluoro-3,5-dimethylbenzyl)-4-(2-((2-methoxyphenyl)ethynyl)phenyl)-2-(piperazin-1-yl)-1H-benzo[d]imidazole trifluoroacetate], for which the EC50 is 5 to 30 µM.

`Cc1cc2c(cc1C)N(Cc1cccc(Br)c1)C1=NCCCN12` [Example 215, 10-(3-bromobenzyl)-7,8-dimethyl-2,3,4,10-tetrahydrobenzo[4,5]imidazo[1,2-a]pyrimidine] came in with an EC50 of 5 to 30 µM.

`Cc1cc(Cn2c(N3CCNCC3)nc3c(-c4ccccc4)nccc32)ccc1F` [Example 220, 1-(4-fluoro-3-methylbenzyl)-4-phenyl-2-(piperazin-1-yl)-1H-imidazo[4,5-c]pyridine]: the 50% effective concentration (EC50) was 5 to 30 µM.

The compound `Cc1cc(Cn2c(NCCN)nc3c(-c4ccccc4)nccc32)ccc1F` [Example 221, N^1-(1-(4-fluoro-3-methylbenzyl)-4-phenyl-1H-imidazo[4,5-c]pyridin-2-yl)ethane-1,2-diamine] gave an EC50 of 30 to 100 µM.

For orientation: EC50 means the concentration needed to bring the measured effect to its halfway point. A low value points to higher potency in that assay.
